Measured values from patent US20120122991A1, “METHOD FOR TREATING CANCER BY INCREASING AMP-ACTIVATED KINASE ACTIVITY” (Dana-Farber Cancer Institute, Inc., priority 2003, published 2012).

Test system: mTOR signaling
Experiment: Immunoblot and cap-complex analysis of mTOR signaling (S6K1, S6, 4E-BP1, GSK-3) in MEFs
Type: cell-based, mouse
Description: FIG. 6A: Subconfluent cycling littermate-matched primary MEFs of the indicated genotype were left untreated (NT) or were treated with 2 mM AICAR for 2 h. Total cell extracts were immunoblotted for phospho-Thr172 AMPK (P-AMPK), phospho Ser79 ACC (P-ACC), phospho-Thr389 S6K1 (P-S6K1), phospho-Ser9 GSK-3b (P-GSK-3), and phospho-Ser235/236 S6 ribosomal protein (P-S6). FIG. 6B: An immortalized LKB1−/− MEF cell line was reconstituted with vector (v), wild-type (wt) or kinase-dead (kd) human LKB1-expressing retroviruses. Cells were treated as in FIG. 6A. eIF4E was used as a loading control. *represents a cross-reactive band with the anti-LKB1 antisera as characterized previously (Shaw et al. (2004) Proc. Natl. Acad. Sci. USA 101, 3329-3335). FIG. 6C: Endogenous 5′ cap complexes were isolated from LKB1 primary MEFs as in A. 10% of the total cell lysate is shown in the left panels; cap complexes purified on 7-methyl sepharose are shown in right panels. Each were immunoblotted with total 4E-BP1 and eIF4E antibodies. eIF4E is shown as a loading control. FIG. 6D: Hela cells (which are LKB1-deficient) were transiently transfected with vector, FLAG-tagged wild-type, or kinase-dead LKB1 along with an HA-tagged S6K1 or an HA-tagged 4E-BP1 construct, then treated where indicated with 2 mM AICAR for 2 h. S6K1-immunoprecipitates were immunoblotted for activating phosphorylation of S6K1 as before, as well with anti-HA to control for levels. Lysates were immunoblotted with anti-FLAG to detect levels of LKB1 and with anti-HA to detect phosphorylation induced changes in 4E-BP1 mobility on SDS-PAGE.
FIGS. 8A and 8B: Littermate matched LKB1- or TSC2-deficient MEFs were compared to wild-type MEFs in their response to a number of stress stimuli known to inhibit mTOR signaling (wild-type cells denoted +, −/− cells simply−). mTOR signaling was examined by immunoblotting for phospho-S6 as in FIG. 6. Activation of Akt and Erk were examined using their specific activation state phospho-specific antibodies (Ser473 for Akt, Thr202/Tyr204 for Erk). As before, eIF4E is used as a loading control. All MEFs were serum-deprived in DMEM alone for 24 h. Indicated samples were then placed in fresh media containing 10% serum, with or without […] rapamycin or 2 mM AICAR, all for 90 min. Amino acid deprivation (-AA) was performed by placing the serum-starved cells into D-PBS with 10% dialyzed serum for 90 min. […] Cells were placed in normal media, glucose free media with 10% dialyzed serum, or glucose-free media with 10% dialyzed serum containing 20 nM rapamycin for 6 or 24 h as indicated. LKB1 genotype indicated at bottom. eIF4E is used as a loading control. FIG. 8D: Cells were treated for 24 h as in FIG. 8C, and viability was quantified by MTT assays performed in triplicate on cells of the indicated genotypes. Cell death is expressed as a percentage of the untreated controls.
Cells were cultured and retrovirally infected as previously described (Shaw et al. (2004), Proc. Natl. Acad. Sci. USA 101:3329-3335). […] Cells were serum-starved in DMEM without serum 14 h post-transfection, then 8 h later the media was replaced with fresh DMEM with 10% FBS or DMEM with 10% FBS and 2 mM AICAR. For the MEF experiments in FIG. 6: cells were plated at 1×10^6 cells/10 cm dish, then the next day the media was replaced with fresh DMEM with 10% FBS or DMEM with 10% FBS and 2 mM AICAR. For the MEF experiments in FIG. 8A,B: 1×10^6 cells of each genotype were plated and the next day serum-starved for 24 h. Cells were either lysed as such or their media replaced with fresh DMEM with 10% FBS, DMEM with 10% FBS and 2 mM AICAR, DMEM with 10% FBS and 20 nM rapamycin, or D-PBS with 10% dialyzed FBS for 90 mins.

NC(=O)c1ncn([C@@H]2O[C@H](CO)[C@@H](O)[C@H]2O)c1N [AICAR, 5-aminoimidazole-4-carboxamide 1-β-D-ribofuranoside]
S6K1 activity (Lkb1-/- MEFs, serum-starved 24 h, 10% serum with 2 mM AICAR for 90 min): failed to down-regulate S6K1 activity
hypophosphorylated 4E-BP1 in total cell lysates (Lkb1-deficient cells, AICAR treatment): near absence of hypophosphorylated 4E-BP1
levels of active S6K1 (Lkb1-deficient fibroblasts, 2 mM AICAR for 2 h): remained high
growth factor signaling to GSK-3 (MEFs, 2 mM AICAR for 2 h): unaffected
S6K1 activity (wild-type MEFs, 2 mM AICAR for 2 h): inhibited
level of hypophosphorylated 4E-BP1 (wild-type MEFs, AICAR treatment): significantly increases
4E-BP1 association with the cap complex (wild-type MEFs, AICAR treatment, 7-methyl GTP sepharose): increased 4E-BP1 association with the cap complex
